For the experiment, the target named is T1, SIRT1 (Homo sapiens, UniProt Q96EB6).
T1 sequence (Q96EB6 1-747): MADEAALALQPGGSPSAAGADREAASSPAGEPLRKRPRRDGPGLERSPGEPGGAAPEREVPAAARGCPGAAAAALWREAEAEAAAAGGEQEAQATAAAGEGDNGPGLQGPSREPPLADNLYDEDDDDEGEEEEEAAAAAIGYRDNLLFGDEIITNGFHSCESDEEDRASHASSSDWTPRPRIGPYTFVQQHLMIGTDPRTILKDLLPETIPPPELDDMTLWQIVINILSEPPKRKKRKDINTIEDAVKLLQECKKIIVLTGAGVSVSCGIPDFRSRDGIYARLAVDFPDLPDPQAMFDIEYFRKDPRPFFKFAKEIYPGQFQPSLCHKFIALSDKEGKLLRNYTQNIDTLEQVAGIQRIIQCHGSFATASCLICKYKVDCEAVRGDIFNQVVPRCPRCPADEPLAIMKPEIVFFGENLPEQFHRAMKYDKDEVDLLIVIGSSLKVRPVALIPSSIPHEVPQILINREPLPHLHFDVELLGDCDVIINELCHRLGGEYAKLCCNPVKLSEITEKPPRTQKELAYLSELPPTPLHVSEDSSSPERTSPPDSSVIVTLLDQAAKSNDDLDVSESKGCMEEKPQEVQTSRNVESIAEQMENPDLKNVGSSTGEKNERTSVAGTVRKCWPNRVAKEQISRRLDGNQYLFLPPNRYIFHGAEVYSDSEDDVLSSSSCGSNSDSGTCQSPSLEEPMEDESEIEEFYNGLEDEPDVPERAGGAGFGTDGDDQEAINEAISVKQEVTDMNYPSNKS
The experiment in a line: TAMRA based mass spectrometry assay of SIRT1 activity. In kind it is biochemical. To be noted: for Emax: read-out: TAMRA % Fold Act. The text has this: Mass spectrometry based assays were used to identify modulators of SIRT1 activity. The TAMRA based assay utilized a peptide having 20 amino acid residues as follows: Ac-EE-K(biotin)-[…](Ac)NleSTEG-K(5TMR)-EE-NH2 (SEQ ID NO: 1), wherein K(Ac) is an acetylated lysine residue and Nle is a norleucine. The peptide was labeled with the fluorophore 5TMR (excitation 540 nm/emission 580 nm) at the C-terminus. The sequence of the peptide substrate was based on p53 with several modifications. In addition, the methionine residue naturally present in the sequence was replaced with the norleucine because the methionine may be susceptible to oxidation during synthesis and purification. The Trp based assay utilized a peptide having an amino acid residues as follows: Ac-R-H-K-K(Ac)-W-NH2 (SEQ ID NO: 2).
The TAMRA based mass spectrometry assay was conducted as follows: 0.5 μM peptide substrate and 120 μM βNAD^+ was incubated with 10 nM SIRT1 for 25 minutes at 25° C. in a reaction buffer (50 mM Tris-acetate pH 8, 137 mM NaCl, 2.7 mM KCl, 1 mM MgCl2, 5 mM DTT, 0.05% BSA). The SIRT1 protein was obtained by cloning the SirT1 gene into a T7-promoter containing vector, which was then transformed and expressed in BL21(DE3) bacterial cells. Test compound was added at varying concentrations to this reaction mixture and the resulting reactions were monitored. After the 25 minute incubation with SIRT1, 10 μL of 10% formic acid was added to stop the reaction. The resulting reactions were sealed and frozen for later mass spec analysis. Determination of the amount of deacetylated substrate peptide formed (or, alternatively, the amount of O-acetyl-ADP-ribose (OAADPR) generated) by the sirtuin-mediated NAD-dependent deacetylation reaction allowed for the precise measurement of relative SIRT1 activity in the presence of varying concentrations of the test compound versus control reactions lacking the test compound.
A control for inhibition of sirtuin activity was conducted by adding 1 μL of 500 mM nicotinamide as a negative control at the start of the reaction (e.g., permits determination of maximum sirtuin inhibition). A control for activation of sirtuin activity was conducted using 10 nM of sirtuin protein, with 1 μL of DMSO in place of compound, to determine the amount of deacetylation of the substrate at a given time point within the linear range of the assay. This time point was the same as that used for test compounds and, within the linear range, the endpoint represents a change in velocity.
For the above assay, SIRT1 protein was expressed and purified as follows. The SirT1 gene was cloned into a T7-promoter containing vector and transformed into BL21(DE3). The protein was expressed by induction with 1 mM IPTG as an N-terminal His-tag fusion protein at 18° C. overnight and harvested at 30,000×g. Cells were lysed with lysozyme in lysis buffer (50 mM Tris-HCl, 2 mM Tris[2-carboxyethyl]phosphine (TCEP), 10 μM ZnCl2, 200 mM NaCl) and further treated with sonication for […] for complete lysis. The protein was purified over a Ni-NTA column (Amersham) and fractions containing pure protein were pooled, concentrated and run over a sizing column (Sephadex S200 26/60 global). The peak containing soluble protein was collected and run on an Ion-exchange column (MonoQ). Gradient elution (200 mM-500 mM NaCl) yielded pure protein. This protein was concentrated and dialyzed against dialysis buffer (20 mM Tris-HCl, 2 mM TCEP) overnight. The protein was aliquoted and frozen at −80° C. until further use.

The mark [1] stands for this setting: concentration of test compound giving 150% activation of SIRT1, TAMRA peptide substrate.
Setting [2] is: percent maximum fold activation of SIRT1, TAMRA peptide substrate.
Where [3] appears, read: TAMRA peptide substrate, concentration giving 150% activation of SIRT1.
Where [4] appears, read: TAMRA peptide substrate, percent maximum fold activation.
The mark [5] stands for this setting: TAMRA assay, concentration giving 150% activation of SIRT1.
Where [6] appears, read: TAMRA assay, percent maximum fold activation.

Read-outs that look alike come from different tables or passages of the source.

Regarding `O=C(Nc1nccs1)c1cnc2ccc(-c3ccccc3C(F)(F)F)nn12` [Compound 15], the “TAMRA EC1.5 (μM)” value under setting [1] is listed as “B (EC1.5 1-25 μM)”. Also, the Emax under setting [2] was at least 350%.
With `O=C(Nc1ncccn1)c1ncn2ccc(-c3ccccc3C(F)(F)F)nc12` [Compound 453], the “TAMRA EC1.5” value under setting [3] is given as “B (EC1.5 1-25 μM)”. Under setting [4], the Emax was at least 350%.
`Cc1nc2ccc(-c3ccccc3C(F)(F)F)nn2c1C(=O)Nc1ccc(Cl)cn1` [Compound 673]: the “TAMRA EC1.5 (μM)” value under setting [5] is recorded as “A (EC1.5<1 μM)”. In addition, the Emax under setting [6] was at least 350%.
As to `Cc1nn2ccc(-c3ccccc3C(F)(F)F)nc2c1NC(=O)c1ccccn1` [Compound 567, N-(2-methyl-5-(2-(trifluoromethyl)phenyl)pyrazolo[1,5-a]pyrimidin-3-yl)picolinamide], the “TAMRA EC1.5” value under setting [3] was “B (EC1.5 1-25 μM)”. Besides, under setting [4], the Emax was below 350%.
In the case of `COc1ccc(NC(=O)c2c(C)nc3ccc(-c4ccccc4C)nn23)nn1` [Compound 720], under setting [5], the “TAMRA EC1.5 (μM)” value was “B (EC1.5 1-25 μM)”. Also, the Emax under setting [6] was at least 350%.
The corresponding values for `O=C(Nc1cnc2ccc(-c3ccccc3F)nn12)c1cnccn1` [Compound 280] are “B (EC1.5 1-25 μM)” and below 350%.
As to `O=C(Nc1cccc(N2CCOCC2)n1)c1nnc2ccc(-c3ccccc3C(F)(F)F)nn12` [Compound 67], the “TAMRA EC1.5 (μM)” value under setting [1] is on record as “A (EC1.5<1 μM)”. Further, the Emax under setting [2] is at least 350%.
Turning to `Cc1nc2c(C)cc(-c3ccccc3C(F)(F)F)nn2c1C(=O)Nc1cccc(N2CC3(CCO3)C2)n1` [Compound 544], the “TAMRA EC1.5” value under setting [3] was “A (EC1.5<1 μM)”. For the same compound, under setting [4], the Emax was at least 350%.
With `CCOc1ccc(NC(=O)c2c(C)nn3ccc(-c4ccccc4C(F)(F)F)nc23)nn1` [Compound 697], the “TAMRA EC1.5 (μM)” value under setting [5] is “A (EC1.5<1 μM)”. Also, under setting [6], the Emax was at least 350%.
For the compound `O=C(Nc1ccnc(OCC(F)(F)F)n1)c1cnc2ccc(-c3ccccc3C(F)(F)F)nn12` [Compound 325], the “TAMRA EC1.5 (μM)” value under setting [5] was “B (EC1.5 1-25 μM)”. Besides, the Emax under setting [6] is below 350%.
On to `O=C(Nc1cnc2ccc(-c3ccccc3C(F)(F)F)nn12)c1cccc(N2CCOCC2)n1` [Compound 82], for which the “TAMRA EC1.5 (μM)” value under setting [1] is “A (EC1.5<1 μM)”. Also, under setting [2], the Emax is at least 350%.
Take `Cc1cc(NC(=O)c2c(C)nc3c(C)cc(-c4ccccc4C(F)(F)F)nn23)ccn1` [Compound 459]: under setting [3], the “TAMRA EC1.5” value is listed as “A (EC1.5<1 μM)”. Further, the Emax under setting [4] is at least 350%.
As for `O=C(Nc1cc(O)ncn1)c1cnn2ccc(-c3ccccc3OC(F)(F)F)nc12` [Compound 711], the “TAMRA EC1.5 (μM)” value under setting [5] is given as “A (EC1.5<1 μM)”. Besides, the Emax under setting [6] is at least 350%.
Turning to `O=C(Nc1ccncc1F)c1cnc2ccc(-c3ccccc3C(F)(F)F)nn12` [Compound 100], the “TAMRA EC1.5 (μM)” value under setting [1] is recorded as “A (EC1.5<1 μM)”. Besides, the Emax under setting [2] is at least 350%.
Take `Cc1nc2ccc(-c3ccccc3OC(F)(F)F)nn2c1C(=O)Nc1cnccn1` [Compound 471]: under setting [3], the “TAMRA EC1.5” value is reported as “A (EC1.5<1 μM)”. Besides, the Emax under setting [4] is at least 350%.
On to `O=C(Nc1cccc(OCC(F)(F)F)n1)c1cnc2ccc(-c3ccccc3F)nn12` [Compound 258], for which the “TAMRA EC1.5 (μM)” value under setting [5] was “C (EC1.5>25 μM)”. Also, the Emax under setting [6] was below 350%.
As for `O=C(Nc1cccc(OC[C@@H](O)CO)n1)c1cnc2ccc(-c3ccccc3C(F)(F)F)nn12` [Compound 554], the “TAMRA EC1.5” value under setting [3] was “A (EC1.5<1 μM)”. Moreover, under setting [4], the Emax was at least 350%.
For the compound `O=C(Nc1cnc2ccc(-c3ccccc3OC(F)(F)F)nn12)c1cscn1` [Compound 316], the “TAMRA EC1.5 (μM)” value under setting [5] is reported as “A (EC1.5<1 μM)”. For the same compound, the Emax under setting [6] is at least 350%.
As for `O=C(Nc1ccnc(N2CCCC2)c1)c1cnc2ccc(-c3cncc(C(F)F)c3)nn12` [Compound 61], the “TAMRA EC1.5 (μM)” value under setting [1] was “B (EC1.5 1-25 μM)”. In addition, under setting [2], the Emax was below 350%.
Regarding `Cc1nc2ccc(-c3ccccc3C(F)(F)F)nn2c1NC(=O)c1cccc(OCC(O)CO)n1` (stereo not shown) [Compound 384], under setting [5], the “TAMRA EC1.5 (μM)” value is on record as “B (EC1.5 1-25 μM)”. Moreover, under setting [6], the Emax was below 350%.
As to `O=C(Nc1ccccn1)c1cnc2ccc(-c3ccccc3Cl)nn12` [Compound 117], under setting [1], the “TAMRA EC1.5 (μM)” value was “B (EC1.5 1-25 μM)”. Besides, the Emax under setting [2] was below 350%.
Regarding `N#Cc1ccccc1-c1ccc2ncc(NC(=O)c3ncccn3)n2n1` [Compound 331], under setting [5], the “TAMRA EC1.5 (μM)” value is “B (EC1.5 1-25 μM)”. In addition, the Emax under setting [6] is at least 350%.
Turning to `Cc1nn2ccc(-c3ccccc3C(F)(F)F)nc2c1C(=O)Nc1ccncc1F` [Compound 789], the “TAMRA EC1.5 (μM)” value under setting [5] was “A (EC1.5<1 μM)”. Further, the Emax under setting [6] is at least 350%.
Take `O=C(Nc1cncc(N2CCOCC2)c1)c1cnc2ccc(-c3ccccc3C(F)(F)F)nn12` [Compound 217]: under setting [5], the “TAMRA EC1.5 (μM)” value is given as “A (EC1.5<1 μM)”. Under setting [6], the Emax was at least 350%.
Regarding `Cc1cc(-c2ccccc2C(F)(F)F)nn2c(NC(=O)c3ccncn3)cnc12` [Compound 409], the “TAMRA EC1.5” value under setting [3] was “A (EC1.5<1 μM)”. Besides, the Emax under setting [4] was at least 350%.
`O=C(Nc1cccc(CN2CCOCC2)n1)c1cnc2ccc(-c3c(F)cccc3Cl)nn12` [Compound 160]: the “TAMRA EC1.5 (μM)” value under setting [1] is “B (EC1.5 1-25 μM)”. For the same compound, the Emax under setting [2] is at least 350%.
`O=C(Nc1cccc(OC(CO)CO)n1)c1cnc2ccc(-c3ccccc3C(F)(F)F)nn12` [Compound 423, N-(6-((1,3-dihydroxypropan-2-yl)oxy)pyridin-2-yl)-6-(2-(trifluoromethyl)phenyl)imidazo[1,2-b]pyridazine-3-carboxamide]: the “TAMRA EC1.5” value under setting [3] is “A (EC1.5<1 μM)”. In addition, the Emax under setting [4] was at least 350%.
As for `Cc1cc(OCC(O)CO)nc(NC(=O)c2cnc3ccc(-c4ccccc4F)nn23)n1` (stereo not shown) [Compound 286], the “TAMRA EC1.5 (μM)” value under setting [5] is on record as “B (EC1.5 1-25 μM)”. Also, under setting [6], the Emax was below 350%.
Take `O=C(Nc1cccc(OC[C@H](O)CO)n1)c1cnc2ccc(-c3ccccc3C(F)(F)F)nn12` [Compound 553]: the “TAMRA EC1.5” value under setting [3] is given as “A (EC1.5<1 μM)”. The Emax under setting [4] was at least 350%.
The matching figures for `Cc1cc2ncc(NC(=O)c3cscn3)n2nc1-c1ccccc1C(F)(F)F` [Compound 434]: “A (EC1.5<1 μM)” and at least 350%.
For the compound `N#Cc1ccccc1-c1ccc2ncc(NC(=O)c3ccncn3)n2n1` [Compound 330], the “TAMRA EC1.5 (μM)” value under setting [5] is given as “B (EC1.5 1-25 μM)”. The Emax under setting [6] is below 350%.
As for `Cc1cc(C)nc(NC(=O)c2cnc3ccc(-c4ccccc4Cl)nn23)c1` [Compound 245], the “TAMRA EC1.5 (μM)” value under setting [5] was “A (EC1.5<1 μM)”. The Emax under setting [6] is at least 350%.

These data come from patent publication US9957271B2, “Substituted bicyclic aza-heterocycles and analogues as sirtuin modulators” (GlaxoSmithKline, LLC, priority 2012, dated 2018).
